Assay results reported in PubChem BioAssay (NCI).
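Values below derive from 48-hour exposures of cells grown in 96-well plates, with endpoints linearly interpolated between the two concentrations bracketing the appropriate inhibition level. GI50: concentration for 50% inhibition of growth. TGI marks complete inhibition of growth.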

Assays:
Experiment in all cases: inhibition of tumour cell growth, NCI panel, 48 h
[1] = system: HCT-15 colon
[2] = system: RXF 393 renal
[3] = system: OVCAR-4 ovarian
[4] = system: OVCAR-3 ovarian
[5] = system: TK-10 renal
[6] = system: HCT-116 colon
[7] = system: MALME-3M melanoma
[8] = system: A549 NSCLC
[9] = system: NCI/ADR-RES ovarian
[10] = system: SNB-75 CNS

| SMILES | GI50 [1] [nM] | TGI [1] [µM] | GI50 [2] [nM] | TGI [2] [µM] | GI50 [3] [µM] | TGI [3] [µM] | GI50 [4] [nM] | TGI [4] [µM] | GI50 [5] [µM] | TGI [5] [µM] | GI50 [6] [nM] | TGI [6] [µM] | GI50 [7] [µM] | TGI [7] [µM] | GI50 [8] [µM] | TGI [8] [µM] | GI50 [9] [nM] | TGI [9] [µM] | GI50 [10] [nM] | TGI [10] [µM] |
| --- | --- | --- | --- | --- | --- | --- | --- | --- | --- | --- | --- | --- | --- | --- | --- | --- | --- | --- | --- | --- |
| O=C(c1nn(-c2ccc(Cl)cc2)cc1O)n1nc(C(F)(F)F)cc1-c1ccccc1 | 1130 | > 100 | 687 | > 76.1 | 2.43 | > 100 | 2250 | > 100 | 1.41 | > 100 | 1910 | > 100 | 12.1 | > 100 | 6.51 | > 100 | 2090 | > 35.9 | 816 | > 100 |
| Nc1nc(-c2ccc(Cl)cc2)cc(-c2ccc(Cl)cc2)c1-c1nc2ccccc2o1 | 17200 | 34.8 | 14100 | 33.5 | 18.5 | 35.5 | 18600 | 35.5 | 20 | 41.9 | 14800 | 30.5 | 14.4 | 29.9 | 15.5 | 40.7 | 14500 | 30.9 | 15000 | 30 |
| CN(C)CC1CCCCCC(Br)C1=O (stereo not given) | – | 25.4 | – | 32.6 | – | 33.6 | – | 21.6 | – | 17.7 | – | 5.1 | – | 17.6 | – | > 100 | – | 37.8 | – | > 100 |
| CC(C)=CC(=O)N[C@@H]1CC2CCC3C(CC[C@@]4(C)C3CC[C@@H]4C(C)N(C)C)[C@@]2(C)C[C@@H]1O (stereo not given in full) | 1390 | 5.01 | 3120 | 12.2 | 4.32 | > 62 | 5140 | 21.9 | 14.1 | 32.3 | 1630 | 5.27 | 2.91 | 9.41 | 7.27 | 33.8 | 7050 | > 72.6 | 5970 | 23.3 |
| CCSc1ccc([C@@H]2[C@@H](N)C(=O)N2c2cc(OC)c(OC)c(OC)c2)cc1 | 65.4 | > 100 | 245 | > 100 | 9.31 | > 100 | 33.8 | 2.08 | 30.6 | > 100 | 44.8 | > 100 | > 100 | > 100 | 0.108 | > 100 | 130 | > 100 | 37.5 | > 100 |
| O=C1/C(=C/c2ccc(Cl)cc2)CN(C(=O)CCN2CCC(=NO)CC2)C/C1=C\c1ccc(Cl)cc1 | 383 | 1.38 | 1460 | 2.87 | 0.834 | 2.39 | 628 | 1.78 | 1.46 | 2.93 | 245 | 0.654 | 1.5 | 3.12 | 1.65 | 3.77 | 930 | 3.75 | 1310 | 2.61 |
